Measurements published in patent US11491185B2, “Intra-mammary teat sealant formulation and method of using same to reduce or eliminate visual defects in aged cheeses” (Wisconsin Alumni Research Foundation, priority 2006, dated 2022).

Assay: Laboratory-induced black spot defect: cheese with ITS components exposed to aged cheese volatiles or hydrogen sulfide gas
Type: physicochemical
Details: blended in cheese, exposed to authentic cheese volatiles or H2S gas
Protocol: FIGS. 4A and 4B are images of laboratory-induced black spot defects. In FIG. 4A, the various components of “ORBESEAL”-brand intra-mammary teat sealant (ITS) were blended with cheese and each spot was photographed immediately. […] Sites 4 and 5 contain bismuth subnitrate and the intact “ORBESEAL”-brand ITS formulation, respectively.
To confirm the reactivity of bismuth subnitrate as a reactant in forming bismuth Ill sulfide nanorods, additional assays were conducted to see if BSD could be purposefully recreated in the lab. In short, cheeses were manufactured with known amounts of ITS components and subjected to either the authentic volatile gasses produced by maturing cheeses or exposed directly to the hypothesized bismuth subnitrate co-reactant, hydrogen sulfide gas. […] No other ITS component formed black spots when so exposed. Furthermore, the susceptible sites formed identically black pigmentation when exposed to either authentic cheese volatiles or to hydrogen sulfide gas, thus confirming that hydrogen sulfide gas was the suspected co-reactant.

In the case of `O=[N+]([O-])[O-].O=[N+]([O-])[O-].O=[N+]([O-])[O-].O=[N+]([O-])[O-].[Bi+3].[Bi+3].[Bi+3].[Bi+3].[Bi+3].[O-2].[OH-].[OH-].[OH-].[OH-].[OH-].[OH-].[OH-].[OH-].[OH-]` [bismuth subnitrate], the “Formation of black pigmentation (black spots) with nanorod structures” value is reported as “formed identical black pigmentation”.
